# From paper PMC12377734 (Proceedings of the National Academy of Sciences of the …, 2025)
# Columns and labels:
# Format in all cases: cell-based
# hPIEZO1 [1] = molecular target: T1, hPIEZO1 (Homo sapiens, UniProt Q92508); experiment: single-cell Fura-2 Ca2+ imaging; conditions: activator; HEK-P1-KO cells, 1 mM Jedi1, pH 7.2, 1.3 mM Ca2+
# hPIEZO1 [2] = molecular target: T1, hPIEZO1; experiment: FLIPR GCaMP6s Ca2+ assay
# mPIEZO1 [3] = molecular target: mPIEZO1 (Mus musculus, UniProt E2JF22, L329P); experiment: FLIPR GCaMP6s Ca2+ assay
# Chain of mPIEZO1 (Mus musculus, UniProt E2JF22, L329P) (E2JF22 whole entry L329P): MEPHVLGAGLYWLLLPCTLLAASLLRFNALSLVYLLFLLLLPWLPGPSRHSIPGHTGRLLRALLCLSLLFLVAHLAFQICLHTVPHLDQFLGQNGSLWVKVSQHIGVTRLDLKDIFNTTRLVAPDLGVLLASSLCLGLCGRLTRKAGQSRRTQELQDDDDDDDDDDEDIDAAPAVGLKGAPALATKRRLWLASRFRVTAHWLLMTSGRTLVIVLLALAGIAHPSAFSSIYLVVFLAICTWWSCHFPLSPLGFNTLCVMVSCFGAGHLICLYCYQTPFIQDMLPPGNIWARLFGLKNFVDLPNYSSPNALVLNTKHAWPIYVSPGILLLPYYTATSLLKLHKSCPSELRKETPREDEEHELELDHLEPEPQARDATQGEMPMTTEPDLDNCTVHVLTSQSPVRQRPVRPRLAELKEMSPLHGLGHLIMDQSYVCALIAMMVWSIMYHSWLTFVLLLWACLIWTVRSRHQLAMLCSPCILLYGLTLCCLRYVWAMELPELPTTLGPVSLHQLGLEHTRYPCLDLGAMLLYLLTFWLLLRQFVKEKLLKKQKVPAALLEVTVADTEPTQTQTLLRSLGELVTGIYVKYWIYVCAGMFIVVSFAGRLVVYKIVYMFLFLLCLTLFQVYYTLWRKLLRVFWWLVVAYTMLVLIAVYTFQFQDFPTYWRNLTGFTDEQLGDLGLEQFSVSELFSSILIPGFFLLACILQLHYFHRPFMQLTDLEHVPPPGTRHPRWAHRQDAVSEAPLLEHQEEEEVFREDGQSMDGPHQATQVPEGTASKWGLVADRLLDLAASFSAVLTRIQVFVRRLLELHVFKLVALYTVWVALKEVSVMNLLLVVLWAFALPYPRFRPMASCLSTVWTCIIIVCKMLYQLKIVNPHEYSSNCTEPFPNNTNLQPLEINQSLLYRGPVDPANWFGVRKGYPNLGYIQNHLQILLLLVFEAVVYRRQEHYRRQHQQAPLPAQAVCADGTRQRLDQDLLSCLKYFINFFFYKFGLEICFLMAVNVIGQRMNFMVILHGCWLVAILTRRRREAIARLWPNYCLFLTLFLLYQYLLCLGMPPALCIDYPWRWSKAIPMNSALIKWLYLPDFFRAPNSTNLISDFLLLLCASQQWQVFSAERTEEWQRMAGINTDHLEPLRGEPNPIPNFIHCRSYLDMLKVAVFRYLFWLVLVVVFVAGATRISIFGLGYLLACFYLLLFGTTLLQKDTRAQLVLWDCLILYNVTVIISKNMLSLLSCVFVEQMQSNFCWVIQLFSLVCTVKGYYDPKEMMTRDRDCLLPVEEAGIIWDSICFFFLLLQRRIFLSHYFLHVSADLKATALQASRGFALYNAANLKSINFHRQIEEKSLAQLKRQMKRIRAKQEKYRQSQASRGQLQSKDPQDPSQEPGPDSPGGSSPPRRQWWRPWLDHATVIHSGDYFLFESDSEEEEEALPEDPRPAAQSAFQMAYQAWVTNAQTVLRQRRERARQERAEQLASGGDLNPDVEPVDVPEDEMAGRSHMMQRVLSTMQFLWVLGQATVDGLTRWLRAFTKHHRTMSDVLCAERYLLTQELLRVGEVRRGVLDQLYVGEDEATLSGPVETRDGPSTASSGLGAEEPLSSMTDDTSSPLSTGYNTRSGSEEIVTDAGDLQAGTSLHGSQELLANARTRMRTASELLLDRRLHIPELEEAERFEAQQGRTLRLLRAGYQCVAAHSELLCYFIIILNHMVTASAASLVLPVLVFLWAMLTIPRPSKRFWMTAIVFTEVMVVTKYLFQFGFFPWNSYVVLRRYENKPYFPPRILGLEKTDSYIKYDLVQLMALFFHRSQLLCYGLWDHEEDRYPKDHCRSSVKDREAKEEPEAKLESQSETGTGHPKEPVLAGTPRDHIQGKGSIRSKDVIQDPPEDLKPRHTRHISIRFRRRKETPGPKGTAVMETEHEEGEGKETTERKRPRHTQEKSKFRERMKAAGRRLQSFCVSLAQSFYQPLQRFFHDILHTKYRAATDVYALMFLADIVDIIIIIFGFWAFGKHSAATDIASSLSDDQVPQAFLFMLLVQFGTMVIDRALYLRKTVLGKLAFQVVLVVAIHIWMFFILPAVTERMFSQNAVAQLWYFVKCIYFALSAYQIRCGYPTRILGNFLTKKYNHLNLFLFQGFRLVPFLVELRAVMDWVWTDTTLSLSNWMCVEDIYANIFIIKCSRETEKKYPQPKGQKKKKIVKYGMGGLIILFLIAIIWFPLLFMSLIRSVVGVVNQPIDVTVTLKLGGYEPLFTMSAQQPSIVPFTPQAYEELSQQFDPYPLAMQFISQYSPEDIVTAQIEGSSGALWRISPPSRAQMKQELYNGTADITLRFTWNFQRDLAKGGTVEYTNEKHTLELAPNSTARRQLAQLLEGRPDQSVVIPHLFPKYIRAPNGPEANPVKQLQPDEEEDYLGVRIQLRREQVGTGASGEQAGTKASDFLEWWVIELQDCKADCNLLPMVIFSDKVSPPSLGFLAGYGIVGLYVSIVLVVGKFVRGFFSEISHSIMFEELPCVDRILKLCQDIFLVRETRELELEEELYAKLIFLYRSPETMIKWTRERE
# mPIEZO1 [4] = molecular target: mPIEZO1 (Mus musculus, UniProt E2JF22); experiment: FLIPR GCaMP6s Ca2+ assay
# Chain of mPIEZO1 (Mus musculus, UniProt E2JF22) (E2JF22 whole entry): as the sequence (E2JF22 whole entry L329P) above, with P329L counted along it
# hPIEZO1 [5] = molecular target: hPIEZO1 (Homo sapiens, UniProt Q92508, L322P); experiment: FLIPR GCaMP6s Ca2+ assay
# Chain of hPIEZO1 (Homo sapiens, UniProt Q92508, L322P) (Q92508 whole entry L322P): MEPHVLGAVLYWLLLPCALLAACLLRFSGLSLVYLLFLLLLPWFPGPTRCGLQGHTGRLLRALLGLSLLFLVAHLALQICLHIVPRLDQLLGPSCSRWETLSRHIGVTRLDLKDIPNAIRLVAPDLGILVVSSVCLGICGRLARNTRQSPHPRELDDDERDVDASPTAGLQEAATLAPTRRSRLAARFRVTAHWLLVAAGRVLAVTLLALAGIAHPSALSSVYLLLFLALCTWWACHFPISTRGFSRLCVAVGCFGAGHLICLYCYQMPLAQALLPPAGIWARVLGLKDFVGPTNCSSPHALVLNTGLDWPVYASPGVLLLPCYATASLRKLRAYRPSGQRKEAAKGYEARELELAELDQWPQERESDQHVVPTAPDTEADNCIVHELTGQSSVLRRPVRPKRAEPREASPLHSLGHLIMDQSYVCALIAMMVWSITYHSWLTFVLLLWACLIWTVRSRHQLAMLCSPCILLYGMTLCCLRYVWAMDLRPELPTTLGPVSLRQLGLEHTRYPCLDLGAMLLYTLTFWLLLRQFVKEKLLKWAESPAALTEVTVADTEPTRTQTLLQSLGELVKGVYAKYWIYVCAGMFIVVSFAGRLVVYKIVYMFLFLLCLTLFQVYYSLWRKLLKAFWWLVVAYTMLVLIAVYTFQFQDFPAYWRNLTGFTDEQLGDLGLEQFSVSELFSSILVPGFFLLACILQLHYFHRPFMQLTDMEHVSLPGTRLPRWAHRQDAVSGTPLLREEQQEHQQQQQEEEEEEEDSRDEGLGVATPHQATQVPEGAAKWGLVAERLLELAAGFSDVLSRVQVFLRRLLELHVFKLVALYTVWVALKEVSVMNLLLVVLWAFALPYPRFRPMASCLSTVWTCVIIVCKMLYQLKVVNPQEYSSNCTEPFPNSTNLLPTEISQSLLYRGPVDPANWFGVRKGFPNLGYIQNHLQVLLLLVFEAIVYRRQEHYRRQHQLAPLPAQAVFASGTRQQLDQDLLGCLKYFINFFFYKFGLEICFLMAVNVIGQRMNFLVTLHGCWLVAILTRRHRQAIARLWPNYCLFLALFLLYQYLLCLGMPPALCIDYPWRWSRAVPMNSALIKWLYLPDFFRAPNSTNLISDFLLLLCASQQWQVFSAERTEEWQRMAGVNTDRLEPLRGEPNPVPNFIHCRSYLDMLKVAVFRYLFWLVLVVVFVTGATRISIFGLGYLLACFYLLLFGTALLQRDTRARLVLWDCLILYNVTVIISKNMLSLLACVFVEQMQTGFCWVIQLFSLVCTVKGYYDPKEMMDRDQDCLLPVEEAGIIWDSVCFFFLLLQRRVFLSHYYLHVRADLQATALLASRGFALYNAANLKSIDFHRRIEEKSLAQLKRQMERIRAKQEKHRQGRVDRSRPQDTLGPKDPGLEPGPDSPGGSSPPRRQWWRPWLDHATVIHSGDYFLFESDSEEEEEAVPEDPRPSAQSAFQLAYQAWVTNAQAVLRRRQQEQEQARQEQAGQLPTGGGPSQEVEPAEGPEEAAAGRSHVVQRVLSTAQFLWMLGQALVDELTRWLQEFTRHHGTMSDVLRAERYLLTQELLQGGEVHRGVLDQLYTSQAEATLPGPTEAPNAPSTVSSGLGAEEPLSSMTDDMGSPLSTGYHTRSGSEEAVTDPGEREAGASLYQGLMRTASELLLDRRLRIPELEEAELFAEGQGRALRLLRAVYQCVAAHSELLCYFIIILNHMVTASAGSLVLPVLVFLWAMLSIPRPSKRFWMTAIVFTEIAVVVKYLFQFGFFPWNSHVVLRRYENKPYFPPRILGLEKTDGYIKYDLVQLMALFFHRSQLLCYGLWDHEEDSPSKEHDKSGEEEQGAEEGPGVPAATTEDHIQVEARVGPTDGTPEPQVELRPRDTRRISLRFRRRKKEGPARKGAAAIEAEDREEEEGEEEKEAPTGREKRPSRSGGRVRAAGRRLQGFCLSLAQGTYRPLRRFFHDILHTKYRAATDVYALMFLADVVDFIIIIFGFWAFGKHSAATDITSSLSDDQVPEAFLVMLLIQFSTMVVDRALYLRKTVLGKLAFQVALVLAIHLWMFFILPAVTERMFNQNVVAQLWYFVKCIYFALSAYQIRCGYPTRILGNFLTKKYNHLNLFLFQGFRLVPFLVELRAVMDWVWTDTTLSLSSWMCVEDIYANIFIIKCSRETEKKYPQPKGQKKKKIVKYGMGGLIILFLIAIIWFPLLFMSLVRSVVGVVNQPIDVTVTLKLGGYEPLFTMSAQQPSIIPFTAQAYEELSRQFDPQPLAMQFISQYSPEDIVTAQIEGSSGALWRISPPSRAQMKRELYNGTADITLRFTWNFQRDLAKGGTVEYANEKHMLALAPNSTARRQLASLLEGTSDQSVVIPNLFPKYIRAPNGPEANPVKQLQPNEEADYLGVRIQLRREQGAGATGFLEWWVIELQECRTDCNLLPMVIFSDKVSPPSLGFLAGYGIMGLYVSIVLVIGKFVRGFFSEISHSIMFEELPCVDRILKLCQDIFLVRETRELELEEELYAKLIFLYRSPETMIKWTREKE
# T1 sequence (Q92508 whole entry): as the sequence (Q92508 whole entry L322P) above, with P322L counted along it
SMILES,Fura-2 ratio change at 1 mM (hPIEZO1 [1]),EC50 (hPIEZO1 [2]),EC50 (mPIEZO1 [3]),EC50 (mPIEZO1 [4]),EC50 (hPIEZO1 [5])
Cc1oc(-c2ccccc2)cc1C(=O)O [Jedi1],comparable Fura-2 signal increase in response to the application of either Jedi1 or Yoda1,–,–,–,–
Clc1cccc(Cl)c1CSc1nnc(-c2cnccn2)s1 [Yoda1],–,9.1 µM,1.3 µM,4.3 µM,3.1 µM
